One experiment concerns c-myc in 22RV-1 cells. Briefly: Human c-myc ELISA assay. Type of experiment: cell-based. The following applies: Homo sapiens; for Emax: 22Rv1, 18 h, read-out: Degradation of BRD4: Maximum inhibition (%) c-Myc ELISA in 22RV1 cells; for DC50: 22Rv1, read-out: Degradation of BRD4: DC50 (uM) c-Myc ELISA in 22RV1 cells. A digest of the protocol:
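22RV-1 cells treated 18 h with 8-point 1:3 compound dilutions (final top 300 nM or 1 μM, 0.1% DMSO). Cells lysed in RIPA buffer with protease/phosphatase inhibitors, and c-myc protein in cleared lysate quantified by ELISA against a standard curve. DC50 reported for c-myc suppression.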

A further experiment deals with SU-DHL-6 xenografts. Put plainly: In vivo SU-DHL-6 xenografts efficacy. Conditions: CB17 SCID mice. As to the method: In vivo SU-DHL-6 Xenografts Efficacy
The 4-5 weeks old male CB17 SCID mice were implanted subcutaneously with 5 million SU-DH-L6 GCB-DLBCL cells (in 200 ul volume of 3:1 matrigel:PBS). After 14 days, mice bearing 180-200 mm^3 tumors were randomized into three groups with ten mice in each group while ensuring identical (±5 mm^3) mean tumor volume in each group. […] Tumor volume was monitored twice per week using calipers and body weights were determined daily during the course of the study.

The next experiment has as its system 22RV-1 tumor xenograft. Put plainly: In vivo 22Rv1 xenografts efficacy. Further details: species or system mice. Conditions: 14 day; OTX-015 as comparison (FIG. 7). As for the experimental part: Mice were housed in pathogen-free animal facilities at New England Life Sciences (NELS, New Haven, Conn.). All experiments were conducted under an IACUC protocol that was approved by the NELS IACUC committee. Male Nu/Nu mice and CB17 SCID mice were obtained at 4-5 weeks age from Charles River Laboratories and implanted subcutaneously with 5×10^6 22Rv1 cells or 5×10^6 VCaP cells in Matrigel (Corning Life Sciences). After 10-14 days, mice bearing >200 mm^3 tumors were randomized into indicated number of groups with ten mice in each group while ensuring identical (±5 mm^3) mean tumor volume in each group. Dosing was carried out through the indicated route and with the indicated schedule for each drug for up to three weeks, depending on the experiment. Mice were sacrificed eight hours after the final dose. Blood was collected, processed to plasma, and flash frozen for PK analysis. Tissues were harvested and flash frozen for further analysis. All PK analysis was carried out at Drumetix Laboratories (Greensboro, N.C.). 2 out of 10 animals in each study arm were randomly excluded in pharmacodynamic analysis, for greater technical ease of running a 20-well protein gel. For PSA ELISA, only samples with at least 25 uL plasma remaining after PK analysis were utilized using the Cell Signaling PathScan® Total PSA/KLK3 Sandwich ELISA Kit #14119 following the manufacturer's protocol. […]

Structures are written as SMILES.

For `Cc1ncsc1-c1ccc([C@H](C)NC(=O)[C@@H]2C[C@@H](O)CN2C(=O)[C@@H](NC(=O)c2cc3cc(O[C@H]4C[C@@H](NC(=O)C[C@@H]5N=C(c6ccc(Cl)cc6)c6c(sc(C)c6C)-n6c(C)nnc65)C4)ccc3o2)C(C)(C)C)cc1` [Example 195, (2S,4R)-1-[(2S)-3,3-dimethyl-2-({5-[(1,3cis)-3-{2-[(9S)-7-(4-chlorophenyl)-4,5,13-trimethyl-3-thia-1,8,11,12-tetraazatricyclo[8.3.0.0^2,^6]trideca-2(6),4,7,10,12-pentaen-9-yl]acetamido}cyclobutoxy]-1-benzofuran-2-yl}formamido)butanoyl]-4-hydroxy-N-[(1S)-1-[4-(4-methyl-1,3-thiazol-5-yl)phenyl]ethyl]pyrrolidine-2-carboxamide], in the experiment with c-myc in 22RV-1 cells, the Emax came out at 100% and the DC50 was < 0.01 µM. In addition, the “in vivo growth of SU-DHL-6 xenografts” value in the experiment with SU-DHL-6 xenografts (6MPK Q3D iv dosing, n=10 (FIG. 10)) is “tumor regression”.
`Cc1sc2c(c1C)C(c1ccc(Cl)cc1)=N[C@@H](CC(=O)Nc1ccc(O)cc1)c1nnc(C)n1-2` [OTX-015, reference compound]: in the experiment with 22RV-1 tumor xenograft, the “tumor response in 22RV-1 mice tumor xenograft model, comparator” value was “tumor growth inhibition”.
Take `Cc1sc2c(c1C)C(c1ccc(Cl)cc1)=N[C@@H](CC(=O)Nc1ccc(O)cc1)c1nnc(C)n1-2` [OTX015, reference compound]: the “in vivo growth of SU-DHL-6 xenografts” value with SU-DHL-6 xenografts (daily po administration of 25MPK (FIG. 10)) is “no effect”.
`Cc1sc2c(c1C)C(c1ccc(Cl)cc1)=N[C@@H](CC(=O)N[C@H]1C[C@@H](Oc3cc(-c4cnn([C@H](C(=O)N5C[C@H](O)C[C@H]5C(=O)N[C@@H](C)c5ccc(-c6nccn6C)cc5)C(C)C)c4)ccn3)C1)c1nnc(C)n1-2` [Example 293]: in the experiment with c-myc in 22RV-1 cells, the Emax came to 9.5% and the DC50 is > 1 µM.
For `Cc1ncsc1-c1ccc(CNC(=O)[C@@H]2C[C@@H](O)CN2C(=O)[C@H](C(C)C)N2Cc3ccccc3C2=O)c(OCCOCCOCCCOCCOCCNC(=O)C[C@@H]2N=C(c3ccc(Cl)cc3)c3c(sc(C)c3C)-n3c(C)nnc32)c1` [Example 5] the same measures were 25% and > 1 µM.
For `Cc1ncsc1-c1ccc(CNC(=O)[C@@H]2C[C@@H](O)CN2C(=O)[C@@H](NC(=O)COCCOCCOCCNC(=O)CC2N=C(c3ccc(Cl)cc3)c3c(sc(C)c3C)-n3c(C)nnc32)C(C)(C)C)cc1` (stereo partly shown) [Example 98] the same measures were 100% and 0.01 to 0.1 µM.
For `Cc1ncsc1-c1ccc(CNC(=O)[C@@H]2C[C@@H](O)CN2C(=O)[C@@H](NC(=O)COCCOCCOCCCCNC(=O)C[C@@H]2N=C(c3ccc(Cl)cc3)c3c(sc(C)c3C)-n3c(C)nnc32)C(C)(C)C)cc1` [Example 51, (2S,4R)-1-[(2S)-2-(2-{2-[2-(4-{2-[(9S)-7-(4-chlorophenyl)-4,5,13-trimethyl-3-thia-1,8,11,12-tetraazatricyclo[8.3.0.0^2,^6]trideca-2(6),4,7,10,12-pentaen-9-yl]acetamido}butoxy)ethoxy]ethoxy}acetamido)-3,3-dimethylbutanoyl]-4-hydroxy-N-{[4-(4-methyl-1,3-thiazol-5-yl)phenyl]methyl}pyrrolidine-2-carboxamide] the same measures were 97% and < 0.01 µM.
As for `Cc1ncsc1-c1ccc([C@H](C)NC(=O)[C@@H]2C[C@@H](O)CN2C(=O)[C@@H](NC(=O)CN2C[C@@H](C)N(C3CC4(C3)CN(C(=O)C[C@@H]3N=C(c5ccc(Cl)cc5)c5c(sc(C)c5C)-n5c(C)nnc53)C4)C[C@@H]2C)C(C)(C)C)cc1` [Example 357, (2S,4R)-1-[(2S)-2-{2-[(2S,5R)-4-(2-{2-[(9S)-7-(4-chlorophenyl)-4,5,13-trimethyl-3-thia-1,8,11,12-tetraazatricyclo[8.3.0.0^2,^6]trideca-2(6),4,7,10,12-pentaen-9-yl]acetyl}-2-azaspiro[3.3]heptan-6-yl)-2,5-dimethylpiperazin-1-yl]acetamido}-3,3-dimethylbutanoyl}-4-hydroxy-N-[(1S)-1-[4-(4-methyl-1,3-thiazol-5-yl)phenyl]ethyl]pyrrolidine-2-carboxamide], in the experiment with c-myc in 22RV-1 cells, the Emax was determined as 100% and the DC50 lay in the range of 0.01 to 0.1 µM.
For `Cc1sc2c(c1C)C(c1ccc(Cl)cc1)=N[C@@H](CC(=O)N[C@H]1C[C@@H](Oc3cccc(-c4cnn([C@H](C(=O)N5C[C@H](O)C[C@H]5C(=O)N[C@@H](C)c5ccc(-c6nccn6C)cc5)C(C)C)c4)c3)C1)c1nnc(C)n1-2` [Example 291] the same measures were 22.2% and > 1 µM.
For `Cc1ncsc1-c1ccc([C@H](C)NC(=O)[C@@H]2C[C@@H](O)CN2C(=O)[C@@H](NC(=O)CN2CCC(O[C@H]3C[C@H](NC(=O)c4ccc5c6ncc(-c7c(C)noc7C)cc6n([C@H](c6ccccc6)C6CCOCC6)c5c4)C3)CC2)C(C)(C)C)cc1` [Example 365, (2S,4R)-1-[(2S)-3,3-dimethyl-2-(2-{4-[(1,3-trans)-3-[3-(dimethyl-1,2-oxazol-4-yl)-5-[(S)-oxan-4-yl(phenyl)methyl]-5H-pyrido[3,2-b]indole-7-amido]cyclobutoxy]piperidin-1-yl}acetamido)butanoyl]-4-hydroxy-N-[(1S)-1-[4-(4-methyl-1,3-thiazol-5-yl)phenyl]ethyl]pyrrolidine-2-carboxamide], in the experiment on c-myc in 22RV-1 cells, the Emax is 100% and the DC50 was < 0.01 µM.
Taken in the same sequence, the figures for `Cc1ncsc1-c1ccc(CNC(=O)[C@@H]2C[C@@H](O)CN2C(=O)[C@@H](NC(=O)COCCN2CCN(c3ccc([C@H](C)NC(=O)C[C@@H]4N=C(c5ccc(Cl)cc5)c5c(sc(C)c5C)-n5c(C)nnc54)cc3)CC2)C(C)(C)C)cc1` [Example 58, (2S,4R)-1-[(2S)-2-{2-[2-(4-{4-[(1S)-1-{2-[(9S)-7-(4-chlorophenyl)-4,5,13-trimethyl-3-thia-1,8,11,12-tetraazatricyclo[8.3.0.0^2,^6]trideca-2(6),4,7,10,12-pentaen-9-yl]acetamido}ethyl]phenyl}piperazin-1-yl)ethoxy]acetamido}-3,3-dimethylbutanoyl]-4-hydroxy-N-{[4-(4-methyl-1,3-thiazol-5-yl)phenyl]methyl}pyrrolidine-2-carboxamide] were 88% and 0.1 to 1 µM.
Taken in the same sequence, the figures for `Cc1ncsc1-c1ccc(CNC(=O)[C@@H]2C[C@@H](O)CN2C(=O)[C@@H](NC(=O)COCCCOCCCOc2ccc(NC(=O)C[C@@H]3N=C(c4ccc(Cl)cc4)c4c(sc(C)c4C)-n4c(C)nnc43)cc2F)C(C)(C)C)cc1` [Example 19] were 92% and 0.01 to 0.1 µM.
Taken in the same sequence, the figures for `Cc1ncsc1-c1ccc(CNC(=O)[C@@H]2C[C@@H](O)CN2C(=O)[C@@H](NC(=O)COCCCCn2cc(-c3ccc([C@@H](C)NC(=O)C[C@@H]4N=C(c5ccc(Cl)cc5)c5c(sc(C)c5C)-n5c(C)nnc54)cc3)cn2)C(C)(C)C)cc1` [Example 33, (2S,4R)-1-[(2S)-2-{2-[4-(4-{4-[(1R)-1-{2-[(9S)-7-(4-chlorophenyl)-4,5,13-trimethyl-3-thia-1,8,11,12-tetraazatricyclo[8.3.0.0^2,^6]trideca-2(6),4,7,10,12-pentaen-9-yl]acetamido}ethyl]phenyl}-1H-pyrazol-1-yl)butoxy]acetamido}-3,3-dimethylbutanoyl]-4-hydroxy-N-{[4-(4-methyl-1,3-thiazol-5-yl)phenyl]methyl}pyrrolidine-2-carboxamide] were 100% and 0.01 to 0.1 µM.

For the origin of these results see US11554171B2, “Compounds and methods for the targeted degradation of bromodomain-containing proteins” (Arvinas Operations, Inc., priority 2015, dated 2023).
